Measurements: patent US4892875A, “Substituted heterocyclylalkyl esters of 1,4-dihydropyridine-3,5-dicarboxylic acids” (Takeda Chemical Industries, Ltd., priority 1982, dated 1990)

Tested on: spontaneously hypertensive rats
Assay: Antihypertensive action (systolic blood pressure, caudal artery) in male spontaneously hypertensive rats
Type: in vivo, rat
Settings: 10 mg/kg oral; for Change in blood pressure 1 hr. after treatment / Change in blood pressure 5 hrs. after treatment: after minus before medication, * P < 0.05 vs control; for Duration of antihypertensive effect: measured 1, 5, 8 and 24 hours after administration
Description: Male spontaneously hypertensive rats aged 10 to 11 weeks were used (in groups of 3 to 6 individuals). […] Each test compound was suspended in a 5% solution of gum arabic and orally administered. The dosage was 10 mg/kg for all compounds. Animals in a control group was given the above solution of gum arabic only.

| SMILES | Change in blood pressure 1 hr. after treatment [mmHg] | Change in blood pressure 5 hrs. after treatment [mmHg] | Duration of antihypertensive effect |
| --- | --- | --- | --- |
| COC(=O)C1=C(C)NC(C)=C(C(=O)OCCN2CCN(c3cccc(Cl)c3)CC2)C1c1cccc(Cl)c1Cl (stereo not drawn) [Example 46] | -44 | -43 | 8 to 24 h |
| CCOC(=O)C1=C(C)NC(C)=C(C(=O)OCCN2CCN(C(c3ccc(C)cc3)c3ccc(C)cc3)CC2)C1c1cccc(Cl)c1Cl (stereo not drawn) [Example 24, 2-[4-(4,4'-dimethylbenzhydryl)-1-piperazinyl]ethyl ethyl 4-(2,3-dichlorophenyl)-2,6-dimethyl-1,4-dihydropyridine-3,5-dicarboxylate] | -49 | -30 | ca. 8 hrs. |
| COC(=O)C1=C(C)NC(C)=C(C(=O)OCCN2CCN(c3ccc(F)cc3)CC2)C1c1cccc(Cl)c1Cl (stereo not drawn) [Example 43, 2-[4-(4-fluorophenyl)-1-piperazinyl]ethyl methyl 4-(2,3-dichlorophenyl)-2,6-dimethyl-1,4-dihydropyridine-3,5-dicarboxylate] | -54 | -44 | 8 to 24 h |
| COC(=O)C1=C(C)NC(C)=C(C(=O)OCCN2CCN(c3ccc(Cl)cc3)CC2)C1c1cccc(Cl)c1 (stereo not drawn) [Example 50, 2-[4-(4-chlorophenyl)-1-piperazinyl]ethyl methyl 4-(3-chlorophenyl)-2,6-dimethyl-1,4-dihydropyridine-3,5-dicarboxylate] | -58 | -37 | 8 to 24 h |
| COC(=O)C1=C(C)NC(C)=C(C(=O)OCCN2CCN(c3ccccc3)CC2)C1c1cccc([N+](=O)[O-])c1 (stereo not drawn) [Example 53, methyl 2-(4-phenyl-1-piperazinyl)ethyl 2,6-dimethyl-4-(3-nitrophenyl)-1,4-dihydropyridine-3,5-dicarboxylate] | -60 | -34 | ca. 8 hrs. |
| CCOC(=O)C1=C(C)NC(C)=C(C(=O)OCCN2CCN(C(c3ccccc3)c3ccccc3)CC2)C1c1cccc(Cl)c1 (stereo not drawn) [Example 28, 2-(4-benzhydryl-1-piperazinyl)ethyl ethyl 4-(3-chlorophenyl)-2,6-dimethyl-1,4-dihydropyridine-3,5-dicarboxylate] | -93 | -75 | 8 to 24 h |
| COCCOC(=O)C1=C(C)NC(C)=C(C(=O)OCCN2CCN(C(c3ccccc3)c3ccccc3)CC2)C1c1cccc([N+](=O)[O-])c1 (stereo not drawn) [Example 30, 2-(4-benzhydryl-1-piperazinyl)ethyl 2-methoxyethyl 2,6-dimethyl-4-(3-nitrophenyl)-1,4-dihydropyridine-3,5-dicarboxylate] | -48 | -31 | 8 to 24 h |
| CCOC(=O)C1=C(C)NC(C)=C(C(=O)OCCN2CCN(C(c3ccc(C)cc3)c3ccc(C)cc3)CC2)C1c1cccc(Cl)c1 (stereo not drawn) [Example 33, 2-[4-(4,4'-dimethylbenzhydryl)-1-piperazinyl]ethyl ethyl 4-(3-chlorophenyl)-2,6-dimethyl-1,4-dihydropyridine-3,5-dicarboxylate] | -51 | -60 | 8 to 24 h |
| COC(=O)C1=C(C)NC(C)=C(C(=O)OCCN2CCN(C(c3ccc(F)cc3)c3ccc(F)cc3)CC2)C1c1cccc(Cl)c1Cl (stereo not drawn) [Example 13, 2-[4-(4,4'-difluorobenzhydryl)-1-piperazinyl]ethyl methyl 4-(2,3-dichlorophenyl)-2,6-dimethyl-1,4-dihydropyridine-3,5-dicarboxylate] | -34 | -31 | 8 to 24 h |
| COC(=O)C1=C(C)NC(C)=C(C(=O)OCCN2CCN(C(c3ccc(Cl)cc3)c3ccc(Cl)cc3)CC2)C1c1cccc([N+](=O)[O-])c1 (stereo not drawn) [Example 12, 2-[4-(4,4'-dichlorobenzhydryl)-1-piperazinyl]ethyl methyl 2,6-dimethyl-4-(3-nitrophenyl)-1,4-dihydropyridine-3,5-dicarboxylate] | -85 | -87 | > 24 h |
| COC(=O)C1=C(C)NC(C)=C(C(=O)OCCN2CCN(c3ccccc3C)CC2)C1c1cccc(Cl)c1 (stereo not drawn) [Example 52, methyl 2-[4-(2-methylphenyl)-1-piperazinyl]ethyl 4-(3-chlorophenyl)-2,6-dimethyl-1,4-dihydropyridine-3,5-dicarboxylate] | -54 | -14 | ca. 8 hrs. |
| CCOC(=O)C1=C(C)NC(C)=C(C(=O)OCCN2CCN(C(c3ccc(C)cc3)c3ccc(C)cc3)CC2)C1c1cccc(C(F)(F)F)c1 (stereo not drawn) [Example 32, 2-[4-(4,4'-dimethylbenzhydryl)-1-piperazinyl]ethyl ethyl 2,6-dimethyl-4-(3-trifluoromethylphenyl)-1,4-dihydropyridine-3,5-dicarboxylate] | -46 | -48 | 8 to 24 h |
| COC(=O)C1=C(C)NC(C)=C(C(=O)OCCN2CCN(c3ccc(C)c(Cl)c3)CC2)C1c1cccc([N+](=O)[O-])c1 (stereo not drawn) [Example 57, 2-[4-(3-chloro-4-methylphenyl)-1-piperazinyl]ethyl methyl 2,6-dimethyl-4-(3-nitrophenyl)-1,4-dihydropyridine-3,5-dicarboxylate] | -85 | -69 | 8 to 24 h |
| COC(=O)C1=C(C)NC(C)=C(C(=O)OCCN2CCN(C(c3ccc(C)cc3)c3ccc(C)cc3)CC2)C1c1cccc([N+](=O)[O-])c1 (stereo not drawn) [Example 9, 2-[4-(4,4'-dimethylbenzhydryl)-1-piperazinyl]ethyl methyl 2,6-dimethyl-4-(3-nitrophenyl)-1,4-dihydropyridine-3,5-dicarboxylate] | -96 | -98 | > 24 h |
| COC(=O)C1=C(C)NC(C)=C(C(=O)OCCN2CCN(c3cccc(Cl)c3)CC2)C1c1cccc([N+](=O)[O-])c1 (stereo not drawn) [Example 17, 2-[4-(3-chlorophenyl)-1-piperazinyl]ethyl methyl 2,6-dimethyl-4-(3-nitrophenyl)-1,4-dihydropyridine-3,5-dicarboxylate] | -77 | -46 | 8 to 24 h |
| COC(=O)C1=C(C)NC(C)=C(C(=O)OCCCN2CCN(C(c3ccccc3)c3ccccc3)CC2)C1c1cccc(Cl)c1 (stereo not drawn) [Example 38, 3-(4-benzhydryl-1-piperazinyl)propyl methyl 4-(3-chlorophenyl)-2,6-dimethyl-1,4-dihydropyridine-3,5-dicarboxylate] | -50 | -42 | 8 to 24 h |
